From patent US20230043863A1, “HETEROAROMATIC DERIVATIVES FOR USE AS REGULATOR, PREPARATION METHOD THEREFOR AND USE THEREOF” (JIANGSU HANSOH PHARMACEUTICAL GROUP CO., LTD., priority 2018, published 2023)

How the values were obtained:
TYK2 = TYK2 (Homo sapiens, UniProt P29597); assay: JAK kinase activity inhibition, TR-FRET (TYK2); type: biochemical; conditions: TR-FRET kinase assay
Protocol: (§1) Experimental objective: The objective of this test is to test the inhibitory effect of the compound on JAK kinase activity.
(§2) Experimental method: the fluorescence resonance energy transfer (TR-FRET) method was used to test the inhibitory effect of the compound on JAK kinase activity, and the half inhibitory concentration IC50 of the compound on JAK kinase activity was obtained.
(§3) Kinase reaction was carried out in a white 384-well plate (PerkinElmer). 1-5 μL of different concentrations of the compound diluted with DMSO and ddH2O was added into each well, and 1-5 μL of the corresponding solvent was added to the positive control wells, followed by addition of 0.1-20 nM JAK kinase solution diluted with 1-5 μL of kinase buffer (HEPES 50-250 mM, MgCl2 5-20 mM, etc.) was added to each well. 1-5 μL of kinase buffer was added to the negative control well. 1-5 μL of substrate mixture containing peptide substrate and ATP was added. The plate was incubated at room temperature for 0.5-5 hours. […], EDTA and detection solution containing labeled antibody was added, and then the plate was incubated at room temperature for another 1-24 hours. The fluorescence signal value at about 620 nm and 665 nm of each well was measured by BioTek Synergy H1 plate reader, and the inhibition rate was calculated by the fluorescence signal value. According to the inhibition rate of different concentrations, the IC50 of the compound was obtained by curve fitting.
(§4) The percentage inhibition data of the wells treated with the compound was calculated with the positive control wells (DMSO control wells) and negative control wells (no kinase added) on the plate {% inhibition rate=100-[(test compound value-negative control value)]/(Positive control value-negative control value)×100}. IC50 value was calculated by using GraphPad prism to fit the data of different concentrations and corresponding percentage inhibition rates to a 4-parameter non-linear logic formula.

JAK1 = JAK1 (Homo sapiens, UniProt P23458); assay: JAK kinase activity inhibition, TR-FRET (JAK1); type: biochemical; conditions: TR-FRET kinase assay
Chain of JAK1 (P23458 whole entry): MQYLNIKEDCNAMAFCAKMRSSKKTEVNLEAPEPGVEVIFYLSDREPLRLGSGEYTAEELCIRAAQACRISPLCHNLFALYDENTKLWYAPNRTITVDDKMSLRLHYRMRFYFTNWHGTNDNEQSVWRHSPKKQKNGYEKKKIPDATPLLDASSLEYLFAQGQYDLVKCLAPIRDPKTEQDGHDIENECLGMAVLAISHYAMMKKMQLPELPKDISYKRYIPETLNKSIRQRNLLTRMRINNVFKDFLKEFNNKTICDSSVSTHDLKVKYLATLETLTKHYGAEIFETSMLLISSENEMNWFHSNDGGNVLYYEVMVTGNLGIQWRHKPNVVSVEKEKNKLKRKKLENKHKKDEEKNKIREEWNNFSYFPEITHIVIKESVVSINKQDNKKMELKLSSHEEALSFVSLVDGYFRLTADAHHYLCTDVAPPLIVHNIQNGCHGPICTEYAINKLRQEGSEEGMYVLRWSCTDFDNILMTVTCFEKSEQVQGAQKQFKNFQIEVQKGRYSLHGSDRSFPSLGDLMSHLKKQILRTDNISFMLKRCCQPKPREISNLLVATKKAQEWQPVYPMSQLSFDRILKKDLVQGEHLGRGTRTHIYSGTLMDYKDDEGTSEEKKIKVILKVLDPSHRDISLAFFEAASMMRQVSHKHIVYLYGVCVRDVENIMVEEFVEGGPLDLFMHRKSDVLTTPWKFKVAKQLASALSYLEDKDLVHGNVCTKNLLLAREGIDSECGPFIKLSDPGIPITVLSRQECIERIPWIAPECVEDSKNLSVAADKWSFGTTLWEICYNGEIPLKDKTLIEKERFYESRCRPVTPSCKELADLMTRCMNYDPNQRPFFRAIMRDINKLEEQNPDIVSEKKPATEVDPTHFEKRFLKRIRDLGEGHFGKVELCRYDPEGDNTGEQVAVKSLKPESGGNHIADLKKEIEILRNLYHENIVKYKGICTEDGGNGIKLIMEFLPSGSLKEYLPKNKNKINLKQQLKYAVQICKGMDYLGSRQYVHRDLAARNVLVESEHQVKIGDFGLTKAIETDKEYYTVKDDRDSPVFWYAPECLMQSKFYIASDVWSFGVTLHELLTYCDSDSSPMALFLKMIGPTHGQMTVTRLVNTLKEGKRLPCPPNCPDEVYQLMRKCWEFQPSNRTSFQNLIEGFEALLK
Protocol: as §1, §2, §3, §4

Chain of TYK2 (P29597 whole entry): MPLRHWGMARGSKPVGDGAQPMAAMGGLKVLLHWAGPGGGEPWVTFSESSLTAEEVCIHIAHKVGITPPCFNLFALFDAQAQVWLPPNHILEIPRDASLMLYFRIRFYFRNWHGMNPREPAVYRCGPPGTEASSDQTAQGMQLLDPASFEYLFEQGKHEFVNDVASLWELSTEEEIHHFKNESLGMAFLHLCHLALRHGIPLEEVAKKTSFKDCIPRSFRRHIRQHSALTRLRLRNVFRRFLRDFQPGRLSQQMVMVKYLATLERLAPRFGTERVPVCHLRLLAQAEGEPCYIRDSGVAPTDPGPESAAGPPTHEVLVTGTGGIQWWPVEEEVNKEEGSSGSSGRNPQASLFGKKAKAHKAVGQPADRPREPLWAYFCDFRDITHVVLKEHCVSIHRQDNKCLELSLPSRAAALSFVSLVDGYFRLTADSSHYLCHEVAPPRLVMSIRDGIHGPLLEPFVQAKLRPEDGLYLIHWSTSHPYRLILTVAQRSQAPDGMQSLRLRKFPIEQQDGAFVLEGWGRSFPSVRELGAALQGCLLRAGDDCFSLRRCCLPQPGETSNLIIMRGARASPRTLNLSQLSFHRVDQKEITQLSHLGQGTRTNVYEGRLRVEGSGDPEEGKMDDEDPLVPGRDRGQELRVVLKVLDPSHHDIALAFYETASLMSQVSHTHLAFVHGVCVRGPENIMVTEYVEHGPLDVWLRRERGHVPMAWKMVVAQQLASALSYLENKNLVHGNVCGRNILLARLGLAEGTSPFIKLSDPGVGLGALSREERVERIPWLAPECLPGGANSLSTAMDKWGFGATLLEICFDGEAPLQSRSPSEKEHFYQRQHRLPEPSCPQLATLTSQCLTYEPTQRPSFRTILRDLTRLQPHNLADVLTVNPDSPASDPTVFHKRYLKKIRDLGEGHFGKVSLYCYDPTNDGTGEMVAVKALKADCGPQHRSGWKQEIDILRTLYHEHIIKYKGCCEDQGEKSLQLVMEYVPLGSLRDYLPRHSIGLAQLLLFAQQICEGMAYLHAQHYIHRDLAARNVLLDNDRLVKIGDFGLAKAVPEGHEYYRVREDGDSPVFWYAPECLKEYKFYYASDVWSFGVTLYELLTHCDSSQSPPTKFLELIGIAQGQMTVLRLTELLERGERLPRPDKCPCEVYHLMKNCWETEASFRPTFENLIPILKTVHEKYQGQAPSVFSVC

Row | Compound | IC50 (TYK2) | IC50 (JAK1)
1 | N#CCCN1[C@@H]2CC[C@H]1C[C@H](Nc1nc(Nc3cc[nH]n3)cc3ncccc13)C2 [Embodiment 6, 3-((3-exo)-3-((7-((1H-pyrazol-3-yl)amino)-1,6-diazanaphthalen-5-yl)amino)-8-azabicyclo[3.2.1]oct-8-yl)propionitrile] | 10.7 nM | 4.03 nM
2 | N#CCCN1[C@@H]2CC[C@H]1C[C@H](Nc1nc(Nc3cc(F)[nH]n3)cc3ncccc13)C2 [Embodiment 9, 3-((3-exo)-3-((7-((5-fluoro-1H-pyrazol-3-yl)amino)-1,6-diazanaphthalen-5-yl)amino)-8-azabicyclo[3.2.1]oct-8-yl)propionitrile] | > 100 nM | 30.6 nM
3 | N#CCCN1[C@@H]2CC[C@H]1C[C@H](Nc1nc(Nc3cc(C4CC4)[nH]n3)cc3ncccc13)C2 [Embodiment 12, 3-((3-exo)-3-((7-((5-cyclopropyl-1H-pyrazol-3-yl)amino)-1,6-diazanaphthalen-5-yl)amino)-8-azabicyclo[3.2.1]oct-8-yl)propionitrile] | 10.1 nM | 2.71 nM
4 | N#CCCN1[C@@H]2CC[C@H]1C[C@H](Nc1nc(Nc3cc(CO)[nH]n3)cc3ncccc13)C2 [Embodiment 19, 3-((3-exo)-3-((7-((5-(hydroxymethyl)-1H-pyrazol-3-yl)amino)-1,6-diazanaphthalen-5-yl)amino)-8-azabicyclo[3.2.1]oct-8-yl)propionitrile] | 40.7 nM | 2.23 nM
5 | Cn1cnc(Nc2cc3ncccc3c(N[C@@H]3C[C@H]4CC[C@@H](C3)N4CCC#N)n2)c1 [Embodiment 25, 3-((3-exo)-3-((7-((1-methyl-1H-imidazol-4-yl)amino)-1,6-diazanaphthalen-5-yl)amino)-8-azabicyclo[3.2.1]oct-8-yl)propionitrile] | 4.57 nM | 1.63 nM
6 | CC(C)(O)c1cnc(Nc2cc3ncccc3c(N[C@@H]3C[C@H]4CC[C@@H](C3)N4CCC#N)n2)s1 [Embodiment 31, 3-((3-exo)-3-((7-((5-(e2-hydroxypropan-2-yl)thiazol-2-yl)amino)-1,6-diazanaphthalen-5-yl)amino)-8-azabicyclo[3.2.1]oct-8-yl)propionitrile] | > 100 nM | 48.6 nM
7 | N#CCCN1[C@@H]2CC[C@H]1C[C@H](Nc1nc(Nc3ncc(C(N)=O)s3)cc3ncccc13)C2 [Embodiment 35, 2-((5-(((3-exo)-8-(2-cyanoethyl)-8-azabicyclo[3.2.1]oct-3-yl)amino)-1,6-diazanaphthalen-7-yl)amino)thiazol-5-formamide] | 22.2 nM | 5.6 nM
8 | Cc1cc(Nc2nc(N[C@@H]3C[C@H]4CC[C@@H](C3)N4CCC#N)c3cc[nH]c3n2)n[nH]1 [Embodiment 39, 3-((3-exo)-3-((2-((5-methyl-1H-pyrazol-3-yl)amino)-7H-pyrrolo[2,3-d]pyrimidin-4-yl)amino)-8-azabicyclo[3.2.1]oct-8-yl)propionitrile] | 9.49 nM | 2.94 nM
9 | Cc1cc(Nc2nc(N[C@@H]3C[C@H]4CC[C@@H](C3)N4CCC#N)nc3[nH]ncc23)n[nH]1 [Embodiment 51, 3-((3-exo)-3-((4-((5-methyl-1H-pyrazol-3-yl)amino)-1H-pyrazolo[3,4-d]pyrimidin-6-yl)amino)-8-azabicyclo[3.2.1]oct-8-yl)propionitrile] | 0.24 nM | 0.24 nM
10 | Cc1cc(Nc2cc3nccn3c(N[C@@H]3C[C@H]4CC[C@@H](C3)N4CCC#N)n2)n[nH]1 [Embodiment 79, 3-((3-exo)-3-((7-((5-methyl-1H-pyrazol-3-yl)amino)imidazo[1,2-c]pyrimidin-5-yl)amino)-8-azabicyclo[3.2.1]oct-8-yl)propionitrile] | 5.77 nM | 2.95 nM
11 | Cc1cc(Nc2nc(N[C@@H]3C[C@H]4CC[C@@H](C3)N4CCC#N)c3ccccc3n2)n[nH]1 [Embodiment 87, 3-((3-exo)-3-((2-((5-methyl-1H-pyrazol-3-yl)amino)quinazolin-4-yl)amino)-8-azabicyclo[3.2.1]oct-8-yl)propionitrile] | > 100 nM | 35.1 nM
